# Test results reported in patent US20100136541A1, “IDENTIFICATION AND VERIFICATION OF METHYLATION MARKER SEQUENCES” (Siemens Healthcare Diagnostics Inc., priority 2003, published 2010).
# What was measured:
# Test in all cases: Affymetrix expression profiling of treated and untreated cell lines (restoration of gene expression)
# Assay type in all cases: cell-based, human
# GPX3 = details: cell line LS174T, treated vs untreated
# Procedure: (§1) Twenty well characterized, microdissected samples of colorectal cancer tissue were obtained from consenting patients. A second set of twenty, microdissected samples of normal adjacent colon tissue were also obtained. Total RNA was extracted from these samples using RNeasy kits (QIAGEN, Valencia, Calif.) according to the manufacturer's instructions. Expression profiling was performed using the GeneChip expression arrays from Affymetrix (Santa Clara, Calif.). Reverse transcription, second-strand synthesis, and probe generation was accomplished by standard Affymetrix protocols. The Human Genome U133A GeneChip, which contains more than 15,000 substantiated human genes, was hybridized, washed, and scanned according to Affymetrix protocols. Changes in cellular mRNA levels in the cancerous tissues were compared with mRNA levels in the normal colon tissues. GeneSpring v4.2 (Silicon Genetics, Redwood City, Calif.) was used to normalize and scale results and compare gene expression levels in the cancer tissue relative to that in the normal tissue.
# (§2) Further support for the clinical importance of these sites comes from the changes seen in gene expression of the genes after treatment of cell lines with 5-aza-2′-deoxyctyidine. These values were obtained from Affymetrix expression profiling of treated and untreated cell lines using the procedure described above.
# SCNN1B = details: cell line LS123, treated vs untreated
# Procedure: as §1, §2
# CA4 = details: cell line LS174T, treated vs untreated
# Procedure: as §1, §2
compound,measurement,setting,value
Nc1ncn([C@H]2C[C@H](O)[C@@H](CO)O2)c(=O)n1 [5-aza-2′-deoxycytidine],restoration of gene expression of GPX3 after treatment,GPX3,8.5 fold
same,restoration of gene expression of SCNN1B after treatment,SCNN1B,4.1 fold
same,restoration of gene expression of CA4 after treatment,CA4,2.8 fold
